Laboratory results as given in patent US7582645B2, “Pyrimidine derivatives for treatment of hyperproliferative disorders” (Bayer Pharmaceuticals Corporation, priority 2003, dated 2009).
pIC50: −log10 of the molar value. Counter-ions that a name gives are not always drawn.

The molecules below were run on HCT116 cells (assay: HCT116 cytotoxic activity assay (Alamar Blue, 72 h)). Conditions: Homo sapiens, HCT-116, 72 h compound exposure, greater than 500 nM but less than or equal to 2 μM.
Assay type: cell-based
Procedure: Representative compounds of this invention were tested for cytotoxicity using the above-described assay procedure with the following results: […]
Work on Nc1nc(Nc2ccc(Oc3cncnc3)cc2)cc(-c2ccccc2)n1 [Example 61, 6-phenyl-N4*-[4-(pyrimidin-5-yloxy)phenyl] pyrimidine-2,4-diamine] yielded a pIC50 of 5.70 to 6.30. Molecule Nc1nc(Nc2ccc(Oc3ccnc(O)c3)cc2)cc(-c2ccccc2)n1 [Example 65, 4-{4-[(2-amino-6-phenylpyrimidin-4-yl)amino]phenoxy}pyridin-2-ol] has a pIC50 of 5.70 to 6.30. N#Cc1ccc(Oc2ccc(Nc3cc(-c4ccccc4)nc(N)n3)cc2)cc1 [Example 68, 4-{4-[(2-amino-6-phenylpyrimidin-4-yl)amino]phenoxy} benzonitrile] gave a pIC50 of 5.70 to 6.30. With CNC(=O)c1cc(Oc2ccc(Nc3cc(-c4ccccc4)nc(N)n3)cc2)ccn1 [Example 70, 4-{4-[(2-amino-6-phenylpyrimidin-4-yl)amino]phenoxy}-N-methylpyridine-2-carboxamide] the pIC50 was 5.70 to 6.30. NC(=O)c1cc(Oc2ccc(Nc3cc(-c4ccc(F)cc4)nc(N)n3)cc2)ccn1 [Example 73, 4-(4-{[2-amino-6-(4-fluorophenyl)pyrimidin-4-yl]amino}phenoxy) pyridine-2-carboxamide] was tested, and the pIC50 was 5.70 to 6.30. Molecule N#Cc1cc(Oc2ccc(Nc3cc(-c4ccc(F)cc4)nc(N)n3)cc2)ccn1 [Example 75, 4-(4-{[2-amino-6-(4-fluorophenyl)pyrimidin-4-yl]amino}phenoxy) pyridine-2-carbonitrile] has a pIC50 of 5.70 to 6.30. In the case of Nc1nc(Nc2ccc(Oc3ccnc(C(=O)NC4CN5CCC4CC5)c3)cc2)cc(-c2ccccc2)n1 (stereo not shown) [Example 79, 4-{4-[(2-amino-6-phenylpyrimidin-4-yl)amino]phenoxy}-N-1-azabicyclo[2.2.2]oct-3-ylpyridine-2-carboxamide trifluoroacetate], the pIC50 was 5.70 to 6.30. With CN(C)CCOc1cc(Oc2ccc(Nc3cc(-c4ccccc4)nc(N)n3)cc2)ccn1 [Example 85, N^4-[4-({2-[2-(dimethylamino)ethoxy]pyridin-4-yl}oxy)phenyl]-6-phenylpyrimidine-2,4-diamine] the pIC50 was 5.70 to 6.30. Work on Cc1ccc(Cc2ccc(Nc3cc(-c4ccccc4)nc(N)n3)cc2)cc1 [Example 89, N^4-[4-(4-methylbenzyl)phenyl]-6-phenylpyrimidine-2,4-diamine] yielded a pIC50 of 5.70 to 6.30. COc1ccc(Cc2ccc(Nc3cc(-c4ccccc4)nc(N)n3)cc2)cc1 [Example 90, N^4-[4-(4-methoxybenzyl)phenyl]-6-phenylpyrimidine-2,4-diamine] showed a pIC50 of 5.70 to 6.30. Nc1nc(Nc2ccc(Cc3ccc(F)cc3)cc2)cc(-c2ccccc2)n1 [Example 91, N^4-[4-(4-fluorobenzyl)phenyl]-6-phenylpyrimidine-2,4-diamine] showed a pIC50 of 5.70 to 6.30. For Nc1nc(Nc2ccc(Oc3ccnc(CNC(=O)N4CCOCC4)c3)cc2)cc(-c2ccccc2)n1 [Example 100, N-[(4-{4-[(2-amino-6-phenylpyrimidin-4-yl)amino]phenoxy}pyridin-2-yl)methyl]morpholine-4-carboxamide], the pIC50 was 5.70 to 6.30. For Nc1nc(Nc2ccc(Oc3cc(N4CCOCC4)ccn3)cc2)cc(-c2ccccc2)n1 [Example 105, N4*-{4-[(4-morpholin-4-ylpyridin-2-yl)oxy]phenyl}-6-phenylpyrimidine-2,4-diamine], the pIC50 was 5.70 to 6.30. Molecule CN1CCN(c2ccnc(Oc3ccc(Nc4cc(-c5ccccc5)nc(N)n4)cc3)c2)CC1 [Example 107, N4*-(4-{[4-(4-methylpiperazin-1-yl)pyridin-2-yl]oxy}phenyl)-6-phenylpyrimidine-2,4-diamine] has a pIC50 of 5.70 to 6.30. With COCCN(CCOC)c1ccnc(Oc2ccc(Nc3cc(-c4ccccc4)nc(N)n3)cc2)c1 [Example 109, N4*-[4-({4-[bis(2-methoxyethyl)amino]pyridin-2-yl}oxy)phenyl]-6-phenylpyrimidine-2,4-diamine] the pIC50 was 5.70 to 6.30. Molecule Nc1nc(Nc2ccc(Oc3ccnc(C(F)(F)F)c3)cc2)cc(-c2ccc(Cl)c(Cl)c2)n1 [Example 112, 6-(3,4-dichlorophenyl)-N4*-(4-{[2-(trifluoromethyl)pyridin-4-yl]oxy}phenyl)pyrimidine-2,4-diamine] has a pIC50 of 5.70 to 6.30. In the case of Nc1nc(Nc2ccc(Oc3ccnc(Cl)c3)cc2)cc(-c2cccc([N+](=O)[O-])c2)n1 [Example 115, N4*-{4-[(2-chloropyridin-4-yl)oxy]phenyl}-6-(3-nitrophenyl)pyrimidine-2,4-diamine], the pIC50 was 5.70 to 6.30.

Same assay, conditions: Homo sapiens, HCT-116, 72 h compound exposure, greater than 2 μM
In the case of CNC(=O)c1cc(Oc2ccc(Nc3cc(-c4ccc(F)cc4)nc(N)n3)cc2)ccn1 [Example 71, 4-(4-{[2-amino-6-(4-fluorophenyl)pyrimidin-4-yl]amino}phenoxy)-N-methylpyridine-2-carboxamide], the pIC50 was < 5.70. CNC(=O)c1cc(Oc2cccc(Nc3cc(-c4ccc(F)cc4)nc(N)n3)c2)ccn1 [Example 72, 4-(3-{[2-amino-6-(4-fluorophenyl)pyrimidin-4-yl]amino}phenoxy)-N-methylpyridine-2-carboxamide] was tested, and the pIC50 was < 5.70. NC(=O)c1cc(Oc2cccc(Nc3cc(-c4ccc(F)cc4)nc(N)n3)c2)ccn1 [Example 74, 4-(3-{[2-amino-6-(4-fluorophenyl)pyrimidin-4-yl]amino}phenoxy) pyridine-2-carboxamide] was tested, and the pIC50 was < 5.70. In the case of CNC(=O)c1cc(Oc2cccc(Nc3cc(-c4ccc(OC)cc4)nc(N)n3)c2)ccn1 [Example 77, 4-(3-{[2-amino-6-(4-methoxyphenyl)pyrimidin-4-yl]amino}phenoxy)-N-methylpyridine-2-carboxamide], the pIC50 was < 5.70. For CCCCOc1cc(Oc2ccc(Nc3cc(-c4ccccc4)nc(N)n3)cc2)ccn1 [Example 83, N4*-{4-[(2-butoxypyridin-4-yl)oxy]phenyl}-6-phenylpyrimidine-2,4-diamine], the pIC50 was < 5.70. With CC(=O)c1ccc(Oc2ccc(Nc3cc(-c4ccccc4)nc(N)n3)cn2)cc1 [Example 87, 1-[4-({5-[(2-amino-6-phenylpyrimidin-4-yl)amino]pyridin-2-yl}oxy)phenyl]ethanone] the pIC50 was < 5.70. For Nc1nc(Nc2ccc(Oc3cc(N4CCCCC4)ccn3)cc2)cc(-c2ccccc2)n1 [Example 106, 6-phenyl-N4*-{4-[(4-piperidin-1-ylpyridin-2-yl)oxy]phenyl}pyrimidine-2,4-diamine], the pIC50 was < 5.70. In the case of Nc1nc(Nc2ccc(Oc3cc(N(CCO)CCO)ccn3)cc2)cc(-c2ccccc2)n1 [Example 108, 2,2′-[(2-{4-[(2-amino-6-phenylpyrimidin-4-yl)amino]phenoxy}pyridin-4-yl)imino]diethanol], the pIC50 was < 5.70. With CCC(CC)NCc1cc(Oc2ccc(Nc3cc(-c4ccccc4)nc(N)n3)cc2)ccn1 [Example 110, N4*-{4-[(2-{[(1-ethylpropyl)amino]methyl}pyridin-4-yl)oxy]phenyl}-6-phenylpyrimidine-2,4-diamine] the pIC50 was < 5.70. Nc1nc(Nc2ccc(Oc3ccnc(CNC4CCCCC4)c3)cc2)cc(-c2ccccc2)n1 [Example 111, N4*-[4-({2-[(cyclohexylamino)methyl]pyridin-4-yl}oxy)phenyl]-6-phenylpyrimidine-2,4-diamine] was tested, and the pIC50 was < 5.70.

Same assay, conditions: Homo sapiens, HCT-116, 72 h compound exposure, less than or equal to 500 nM
In the case of Nc1ccc(Oc2ccc(Nc3cc(-c4ccccc4)nc(N)n3)cc2)cc1 [Example 62, N^4-[4-(4-aminophenoxy)phenyl]-6-phenylpyrimidine-2,4-diamine], the pIC50 was ≥ 6.30. With Nc1nc(Nc2ccc(Oc3cc(Br)ccn3)cc2)cc(-c2ccccc2)n1 [Example 63, N4*-{4-[(4-bromopyridin-2-yl)oxy]phenyl}-6-phenylpyrimidine-2,4-diamine] the pIC50 was ≥ 6.30. For Nc1nc(Nc2ccc(Oc3ccnc(F)c3)cc2)cc(-c2ccccc2)n1 [Example 64, N4*-{4-[(2-fluoropyridin-4-yl)oxy]phenyl}-6-phenylpyrimidine-2,4-diamine trifluoroacetate], the pIC50 was ≥ 6.30. Nc1nc(Nc2ccc(Oc3ccnc(Cl)c3)cc2F)cc(-c2ccccc2)n1 [Example 66, N4*-{4-[(2-chloropyridin-4-yl)oxy]-2-fluorophenyl}-6-phenylpyrimidine-2,4-diamine] was tested, and the pIC50 was ≥ 6.30. For Nc1nc(Nc2ccc(Oc3ccnc(C(F)(F)F)c3)cc2F)cc(-c2ccccc2)n1 [Example 67, N4*-(2-fluoro-4-{[2-(trifluoromethyl)pyridin-4-yl]oxy}phenyl)-6-phenylpyrimidine-2,4-diamine], the pIC50 was ≥ 6.30. For NC(=O)c1cc(Oc2ccc(Nc3cc(-c4ccccc4)nc(N)n3)cc2)ccn1 [Example 69, 4-{4-[(2-amino-6-phenylpyrimidin-4-yl)amino]phenoxy} pyridine-2-carboxamide], the pIC50 was ≥ 6.30. CNC(=O)c1cc(Oc2cccc(Nc3cc(-c4cccc(OC)c4)nc(N)n3)c2)ccn1 [Example 76, 4-(3-{[2-amino-6-(3-methoxyphenyl)pyrimidin-4-yl]amino}phenoxy)-N-methylpyridine-2-carboxamide] was tested, and the pIC50 was ≥ 6.30. Nc1nc(Nc2ccc(Oc3ccnc(C(=O)NCC(O)CO)c3)cc2)cc(-c2ccccc2)n1 (stereo not shown) [Example 80, 4-{4-[(2-amino-6-phenylpyrimidin-4-yl)amino]phenoxy}-N-(2,3-dihydroxypropyl)pyridine-2-carboxamide] was tested, and the pIC50 was ≥ 6.30. In the case of COCCOc1cc(Oc2ccc(Nc3cc(-c4ccccc4)nc(N)n3)cc2)ccn1 [Example 84, N^4-(4-{[2-(2-methoxyethoxy)pyridin-4-yl]oxy}phenyl)-6-phenylpyrimidine-2,4-diamine], the pIC50 was ≥ 6.30. Nc1ccc(Cc2ccc(Nc3cc(-c4ccccc4)nc(N)n3)cc2)cc1 [Example 88, N^4*-[4-(4-aminobenzyl)phenyl]-6-phenylpyrimidine-2,4-diamine] was tested, and the pIC50 was ≥ 6.30. With CN(C)C(=O)NCc1cc(Oc2ccc(Nc3cc(-c4ccccc4)nc(N)n3)cc2)ccn1 [Example 99, N′-[(4-{4-[(2-amino-6-phenylpyrimidin-4-yl)amino]phenoxy}pyridin-2-yl)methyl]-N,N-dimethylurea] the pIC50 was ≥ 6.30. Nc1nc(Nc2cccc(Oc3ccnc(Cl)c3)c2)cc(-c2ccccc2)n1 [Example 113, N4*-{3-[(2-chloropyridin-4-yl)oxy]phenyl}-6-phenylpyrimidine-2,4-diamine] was tested, and the pIC50 was ≥ 6.30. With Nc1nc(Nc2ccc(Oc3ccnc(Cl)c3)cc2)cc(-c2ccc(F)cc2)n1 [Example 114, N4*-{4-[(2-chloropyridin-4-yl)oxy]phenyl}-6-(4-fluorophenyl)pyrimidine-2,4-diamine] the pIC50 was ≥ 6.30.
